This is an account of results in EPA's ToxValDB 9.5 (doi:10.2903/j.efsa.2006.51r).

The structures appear in SMILES notation. Values after ≈ are worked out from the molar mass of the structure shown.

Series [1] has as its system Tagia sp.
For series [2], the system named is Oncorhynchus mykiss. The settings on record: chronic/long-term; duration: 21 days.
In series [3] the test system is Typhlodromus pyri. To be noted: not reported; other.
The subject of series [4] is Daphnia magna. The settings on record: chronic/long-term; duration: 21 days; other.
The test system of series [5] is Anas platyrhynchos.
The test system of series [6] is Bibionidae. The settings on record: chronic/long-term.
For series [7], the system named is Lepomis macrochirus. To be noted: acute; duration: 96 hours; mortality.
Series [8] relates to Colinus virginianus. To be noted: acute; oral; diet; mortality.
The subject of series [9] is Rattus norvegicus.
The subject of series [10] is Apis mellifera. The settings on record: acute, mortality.
The test system of series [11] is Aphidius rhopalosiphi. Briefly: LR50; higher = less toxic. To be noted: not reported; other.

With `Cc1cc(C2CC2)nc(Nc2ccccc2)n1` [Cyprodinil], the LC50 was 192 mg/kg in series [1] (acute, duration: 14 days, mortality); 2.17 µg/mL (≈ 9.63 µM) in series [7]; over 743 mg/kg in series [8]. Also, the NOEC turned out to be 15000 g/ha in series [1] (chronic/long-term, duration: 56 days, reproduction); 0.083 mg/L in series [2]; 0.0082 mg/L in series [4]; 64 mg/kg in series [5] (reproductive); 80 mg/kg in series [6] (duration: 27 days, other); 0.24 mg/L in series [6] (duration: 28 days, no effects). Further, the LEL in [3] stood at 750 g/ha. For the same molecule, the LD50 in [5] (acute, oral, unspecified, mortality) is over 500 mg/kg; in series [9] (acute, oral, mortality) it was over 2000 mg/kg; in series [10] (duration: 48 hours, dermal) it was over 784 µg/piece; in [10] (oral, unspecified), over 112 µg/piece. The NOAEL (usually the highest dose or exposure tested at which no adverse effect was seen) in series [9] (chronic, duration: 2 years, M/F, organ weight) stood at 3 mg/kg-day; in series [9] (reproduction developmental, organ weight), 72.7 mg/kg-day; in series [9] (subchronic, duration: 90 days, histopathology: nonneoplastic) it was 3.14 mg/kg-day. The molecule further registered an LR50 in series [11] of 750 g/ha.
